Results: PubChem BioAssay (NCI)
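How tested: cells in 96-well plates exposed to compound for 48 hours at five concentrations. GI50: concentration for 50% inhibition of growth. At the TGI there is no net growth.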

What was measured:
Assay in all cases: DTP human tumour cell line panel, 48 h; in the data active = GI50 below about 0.43 µM; inactive = the rest
[1] = tested on: SW-620 colon
[2] = tested on: MDA-MB-231 breast
[3] = tested on: BT-549 breast
[4] = tested on: PC-3 prostate
[5] = tested on: HOP-92 NSCLC
[6] = tested on: NCI-H226 lung
[7] = tested on: SNB-19 CNS
[8] = tested on: KM12 colon
[9] = tested on: NCI-H460 lung
[10] = tested on: UO-31 renal
[11] = tested on: HS 578T breast
[12] = tested on: IGROV1 ovarian
[13] = tested on: T-47D breast
[14] = tested on: RPMI-8226 leukemia
[15] = tested on: CCRF-CEM leukemia
[16] = tested on: ACHN renal
[17] = tested on: NCI-H522 lung
[18] = tested on: K-562 leukemia
[19] = tested on: HOP-62 NSCLC
[20] = tested on: HCC-2998 colon
[21] = tested on: SK-MEL-2 melanoma
[22] = tested on: A549 NSCLC
[23] = tested on: DU-145 prostate
[24] = tested on: OVCAR-5 ovarian
[25] = tested on: COLO 205 colon
[26] = tested on: TK-10 renal
[27] = tested on: HL-60(TB) leukemia
[28] = tested on: UACC-257 melanoma
[29] = tested on: M14 melanoma
[30] = tested on: SR leukemia
[31] = tested on: MALME-3M melanoma
[32] = tested on: OVCAR-8 ovarian
[33] = tested on: EKVX NSCLC
[34] = tested on: CAKI-1 renal
[35] = tested on: NCI/ADR-RES ovarian
[36] = tested on: SN12C renal
[37] = tested on: MDA-MB-435
[38] = tested on: HT29 colon
[39] = tested on: OVCAR-4 ovarian
[40] = tested on: SF-295 CNS
[41] = tested on: OVCAR-3 ovarian
[42] = tested on: SNB-75 CNS
[43] = tested on: U251 CNS
[44] = tested on: A498 renal
[45] = tested on: SF-539 CNS
[46] = tested on: HCT-15 colon
[47] = tested on: 786-0 renal
[48] = tested on: MOLT-4 leukemia
[49] = tested on: HCT-116 colon
[50] = tested on: SK-OV-3 ovarian
[51] = tested on: LOX IMVI melanoma
[52] = tested on: SK-MEL-5 melanoma
[53] = tested on: UACC-62 melanoma
[54] = tested on: MCF7 breast
[55] = tested on: SK-MEL-28 melanoma
[56] = tested on: SF-268 CNS
[57] = tested on: NCI-H23 lung

COc1ccc(C(=O)C[C@]2(O)C(=O)Nc3c(Cl)ccc(Cl)c32)cc1
9.78 µM: TGI [25]
30 µM: TGI [14]
3.06 µM: TGI [27]
> 100 µM: TGI [1] | TGI [2] | TGI [4] | TGI [6] | TGI [7] | TGI [10] | TGI [11] | TGI [12] | TGI [13] | TGI [15] | TGI [16] | TGI [18] | TGI [19] | TGI [20] | TGI [21] | TGI [22] | TGI [24] | TGI [26] | TGI [28] | TGI [29] | TGI [30] | TGI [31] | TGI [33] | TGI [34] | TGI [36] | TGI [39] | TGI [40] | TGI [43] | TGI [46] | TGI [47] | TGI [48] | TGI [50] | TGI [51] | TGI [53] | TGI [54] | TGI [55] | TGI [57]
> 53.5 µM: TGI [9]
inactive: GI50 [2] 0.801 µM | GI50 [3] 0.59 µM | GI50 [4] 1.16 µM | GI50 [5] 1.41 µM | GI50 [6] 3.02 µM | GI50 [7] 1.05 µM | GI50 [10] 1.47 µM | GI50 [11] 0.555 µM | GI50 [12] 0.531 µM | GI50 [13] 0.498 µM | GI50 [14] 0.589 µM | GI50 [15] 0.563 µM | GI50 [16] 0.774 µM | GI50 [19] 1.06 µM | GI50 [20] 1.96 µM | GI50 [21] 0.627 µM | GI50 [22] 0.766 µM | GI50 [23] 1.87 µM | GI50 [24] 2.43 µM | GI50 [25] 0.488 µM | GI50 [26] > 29.4 µM | GI50 [28] 50.3 µM | GI50 [31] 0.503 µM | GI50 [32] 0.92 µM | GI50 [33] 0.892 µM | GI50 [34] 0.492 µM | GI50 [36] 0.87 µM | GI50 [39] 12 µM | GI50 [40] 0.516 µM | GI50 [43] 0.508 µM | GI50 [45] 0.478 µM | GI50 [47] 2.61 µM | GI50 [48] 0.533 µM | GI50 [50] 1.89 µM | GI50 [51] 0.581 µM | GI50 [52] 0.573 µM | GI50 [53] 0.486 µM | GI50 [55] 6.54 µM | GI50 [56] 1.33 µM | GI50 [57] 1.51 µM
> 72.9 µM: TGI [3]
> 92.3 µM: TGI [5]
0.972 µM: TGI [42]
22.3 µM: TGI [52]
> 40.1 µM: TGI [8]
1.52 µM: TGI [44]
7.19 µM: TGI [41]
active: GI50 [1] 0.379 µM | GI50 [8] 0.39 µM | GI50 [9] 0.389 µM | GI50 [17] 0.317 µM | GI50 [18] 0.258 µM | GI50 [27] 0.343 µM | GI50 [29] 0.321 µM | GI50 [30] 0.243 µM | GI50 [35] 0.379 µM | GI50 [37] 0.128 µM | GI50 [38] 0.376 µM | GI50 [41] 0.348 µM | GI50 [42] 0.199 µM | GI50 [44] 0.295 µM | GI50 [46] 0.35 µM | GI50 [49] 0.406 µM | GI50 [54] 0.383 µM
> 77.3 µM: TGI [32]
> 55.7 µM: TGI [23]
0.396 µM: TGI [37]
> 77.8 µM: TGI [56]
3.99 µM: TGI [45]
24.6 µM: TGI [49]
